Test results as given in patent US10323254B2, “Method for regulating plant growth” (RIKEN, priority 2015, dated 2019).

Key:
[1] = test system: BR-responsive genes (TCH4, BAS1, IAA19, and SAUR-AC1); assay: qRT-PCR of BR-responsive gene expression in seedlings; type: in vivo, Arabidopsis thaliana; conditions: wild-type (WT) plants; 7-day-old dark-germinated seedlings; 3 μM Brz or 100 nM BL for 3 hours
Method: The expression level of TCH, BAS1, IAA19, and SAUR-AC1 were analyzed by qRT-PCR in 7-day-old dark-germinated seedlings and treated with medium containing DMSO (Mock), 3 μM Brz (+Brz), or 100 nM BL (+BL) for 3 hours. The data represent the mean±s.d. of 4 independent experiments (**P<0.01, Student's t-test). […] Ten-day-old seedlings grown on medium with Brz were treated with 100 nM BL or mock solution for 3 hours. Total proteins were extracted and analyzed by immunoblotting with an anti-BIL1 antibody. […] The signal intensities of phosphorylated BIL1 (above) and dephosphorylated BIL1 (below) are shown by arrowhead, and each band signal is counted as a percentage relative to the level of phosphorylated BIL1 in WT seedlings.
Total RNA was extracted from plants using an RNeasy Plant Mini Kit (QIAGEN).
The first-strand cDNA was synthesized using PrimeScript (Takara) and was used in qRT-PCR. The qRT-PCR was performed according to the instructions provided for the Thermal Cycler Dice (Takara) using the SYBR Premix ExTaq system (Takara). […]

BSS1-GFP = assay: Fluorescence microscopy of punctate BSS1-GFP in transgenic seedlings; type: in vivo, Arabidopsis thaliana; conditions: for number of intense puncta per cell: 7-day-old BSS1-GFP seedlings treated 3 hours with 3 μM Brz or 100 μM BL; for single fluorescence intensity of each punctum: Brz versus BL treatment conditions, 3 hours; for onset of responsiveness of punctate BSS1-GFP: time after treatment, roots and hypocotyls
Method: FIGS. 5C to 5E show analysis of BSS1-GFP puncta signal intensities upon treatment with Brz and BL. Seven-day-old BSS1-GFP transgenic seedlings were treated for 3 hours with 3 μM Brz (Brz), an equal volume of DMSO (Mock), or 100 μM BL (BL). […] The results are represented as the mean±s.d. The signal intensity was measured using ImageJ software. […]
The plants that were transformed with the CaMV35S-BSS1-GFP construct BSS1(-GFP)-OX and the CaMV35S-BIL1-GFP construct BIL1-GFP-OX were observed via confocal laser scanning microscopy with a BX60 fluorescence microscope (Olympus) equipped with a Model CSU10 confocal scanner (Yokogawa Electric) and LSM700 (Zeiss).
FM4-64 (Molecular Probes) dissolved in water was applied to Arabidopsis plants at a final concentration of 4 μM for 3 minutes. The plants were washed with water to remove the excessive amount of the stain and observed. A DMSO-base stock solution of Brefeldin A (BFA) (Sigma) was applied to the cells at a final concentration of 50 μM for 1 hour.
The images were analyzed using ImageJ software. To measure the ratio of the nuclear and cytosolic signals of BIL1-GFP for each cell, the signal intensities in the nucleus and cytosol were calculated from the mean of the intensity in each area. The nuclear to cytosolic signal ratio was then calculated for each cell. The average nuclear/cytosolic signal ratio and standard error were calculated from measurements of at least 54 cells from each line (FIG. 9B). Line scan measurements from the vacuole to the nucleus through the cytosol were performed, and representative plot profiles of sample measurements are presented in FIG. 5C.

[2] = test system: nEYFP-BSS1 and BIL1-cEYFP; assay: BiFC analysis of the BSS1-BIL1 interaction in protoplast cells; type: cell-based, Arabidopsis; conditions: protoplasts
Method: BIL1 was fused with the binding-domain (BD) and BSS1 was fused with the prey domain (AD). Empty vector (E) was used as a control. The results are presented as the mean±s.d. from 3 independent experiments. […] FLAG-BIL1 was immunoprecipitated using an anti-FLAG antibody and immunoblotted using anti-GFP and anti-FLAG antibodies. […] The protoplast medium contained DMSO, 100 nM BL, or 3 μM Brz and cells were cultured for 12 hours. The bottom panels show protoplasts cotransfected with nYFP-BSS1 and BSS1-cEYFP (YFP: YFP fluorescence; BF: bright field; Merge: merged image of YFP and BF; arrow: nucleus; scale bar: 5 μm). […]
To analyze the direct interaction between BSS1 and BIL1 in the plant cell and to identify the localization of the possible interaction between the two proteins, a bi-molecular fluorescence complementation (BiFC) analysis was performed. […] The YFP fluorescence signal caused by the binding of nYFP-BSS1 and BIL1-cYFP was only observed in the cytosol and not in the nucleus of the Arabidopsis protoplasts (FIG. 7E). […]

SMILES: CC(C)[C@H](C)[C@@H](O)[C@H](O)[C@@H](C)[C@H]1CC[C@H]2[C@@H]3COC(=O)[C@H]4C[C@H](O)[C@H](O)C[C@]4(C)[C@H]3CC[C@]12C [BL, brassinolide]
- expression of TCH4, BAS1, IAA19, and SAUR-AC1 [1]: increased
- number of intense puncta per cell (BSS1-GFP; versus mock): decreased
- single fluorescence intensity of each punctum (BSS1-GFP): not different
- onset of responsiveness of punctate BSS1-GFP (BSS1-GFP): 15 min
- localization of YFP signal (nYFP-BSS1 / BIL1-cYFP) ([2]; 100 nM BL for 12 hours): diffuse and spread throughout the cytosol and the nucleus

SMILES: CC(O)(c1ccccc1)C(Cc1ccc(Cl)cc1)n1cncn1 (stereo not drawn) [Brz, brassinazole]
- expression of TCH4, BAS1, IAA19, and SAUR-AC1 [1]: suppressed
- fluorescence intensity of the puncta per cell with respect to the whole-cell fluorescence intensity (BSS1-GFP; 7-day-old BSS1-GFP seedlings treated 3 hours with 3 μM Brz): increase
- number of intense puncta per cell (BSS1-GFP; versus mock): increased
- cytosolic fluorescence signal (BSS1-GFP; 7-day-old BSS1-GFP seedlings treated 3 hours with 3 μM Brz, versus mock): decreased
- single fluorescence intensity of each punctum (BSS1-GFP): not different
- onset of responsiveness of punctate BSS1-GFP (BSS1-GFP): 15 min
- punctate YFP signal (nYFP-BSS1 / BIL1-cYFP) ([2]; 3 μM Brz for 12 hours): increased
